Laboratory results reported in article PMC9562916, “Investigation of the Phenolic Component Bioavailability Using the In Vitro Digestion/Caco-2 Cell Model, as well as the Antioxidant Activity in Chinese Red Wine” (Foods, 2022).
Read-outs that look alike come from different tables or passages of the source. Marks after values point to notes of the source that are not given here.

What was measured:
Caco-2 cell monolayer = experiment: Caco-2 transepithelial transport assay of digested red wine; format: in vitro ADME, human
Protocol: Caco-2 cells were inoculated following the method of Hubatsch et al. […] Briefly, a 5% v/v of CO2 incubator at 37 °C was used to house the cells. […] Caco-2 cells were sub-cultured when they reached 80-90% of the adherent growth by treating them with a 0.05% v/v of trypsin-EDTA solution. The culture between passages 35 and 40 was used for the following experiment. Transport experiments were performed according to the method of Wu et al. with slight modifications. First, 1.0 × 10^5 Caco-2 cells were inoculated onto 12 mm transparent cell culture plates (Transwell). Media were carefully injected into the apical (0.5 mL) and basolateral (1.5 mL) sides of the Transwell plates. The cell culture medium had to be replaced every other day until the cells formed a monolayer. The integrity and transport ability of the Caco-2 cell monolayer were evaluated by measuring the trans-epithelial electrical resistance (TEER) with a MilliCell voltammeter (Millicell ERS-2, Merck Millipore, Billerica, MA, USA). […] When the cell activity exceeded 0.9, a transport experiment was conducted. The apical side was injected with a digested red wine sample (0.5 mL) and was thoroughly mixed with […] Balanced Salt Solution (HBSS) buffer solution. […] The cells were then cultured in a 37 °C, 5% CO2 incubator. Then, 0.25 mL samples were separately taken from the basolateral side of the monolayer. An equal volume of HBSS buffer was then added every half hour from the beginning of the culture until the end of the culture at 6 h. The collected samples were subsequently filtered and placed in the sample bottle for further HPLC analysis. This experiment was repeated several times to collect enough samples for the next antioxidant test. […] The Agilent 1100 series HPLC instrument was used; it was equipped with a degasser, quaternary pump solvent delivery, a DAD system, and a single quadrupole mass detector coupled with an electrospray ionization LC-MS interface. […] The column temperature was kept at 30 °C, the injection volume was 10 μL, and the flow rate was 0.3 mL/min. The eluents were water and formic acid in a 99:1 (v/v) (A) ratio and 100% acetonitrile (B). The gradient elution procedure was as follows: (1) 3% B solvent at 0 min, (2) 3 to 16% B solvent at 10 min, (3) 16 to 20% B solvent at 30 min, and (4) 20% B solvent maintained until the procedure was completed. The MS configuration was as follows: ESI, negative ion mode, nebulizer pressure of 30 psi, a dry gas flow rate of 10 mL/min, dry gas temperature of 350 °C, and a scan rate of 100~1200 m/z. PCs were determined according to their retention times, UV/VIS spectra, and high-resolution MS spectra, in addition to a comparison with the standards. […] If a standard was unavailable, a structurally related compound was used. Putative annotations were made using spectral features and literature information on the chromatographic properties and mass spectra records from the metabolome database. A standard curve was drawn using methanol solutions with different concentrations as the standards. […] PCs All of the samples were determined in triplicate.

[1] = PC content of red wine before and after in vitro simulated gastrointestinal digestion (HPLC); format: in vitro ADME; details: for Increase in content after digestion: after digestion vs undigested
Protocol: The digestion procedure was carried out by adapting the method of Brodkorb et al. and Gómez et al.. […] One milliliter (50 units/mL) of porcine amylase was prepared in a 15 mM Na₃PO₄ buffer solution (pH adjusted to 6.8) containing 1.5 mM CaCl2, and it was added to the red wine solution. After 5 min, 4.5 mL of 0.12 M HCl was added to the mixture to adjust the pH to 2.4. One milliliter of porcine pepsin (0.02 mg/L) was dissolved in a 20 mM HCl solution. The mixture was then maintained at 37 °C for 120 min. The digestion mixture was then centrifuged at 8000× g for 15 min to obtain samples from the gastric digestion phase. […] The mixture was incubated at pH 6.5 at 37 °C for 3 h before being centrifuged. The extracts of the intestinal phase were the supernatants. The same operation was done three times, and each sample was stored in a refrigerator (−20 °C) immediately for further analysis.
The Pati method was adopted, with slight modifications, to measure the content of the PCs. The Agilent 1100 series HPLC instrument was used; it was equipped with a degasser, quaternary pump solvent delivery, a DAD system, and a single quadrupole mass detector coupled with an electrospray ionization LC–MS interface. Briefly, th samples were injected into a Zorbax SB C18 reversed-phase column (5 µm,150 × 2.1 mm, Agilent Technologies, Santa Clara, CA, USA) using an autosampler after filtering through 0.45 µm cellulose acetate syringe filters. The column temperature was kept at 30 °C, the injection volume was 10 µL, and the flow rate was 0.3 mL/min. The eluents were water and formic acid in a 99:1 (v/v) (A) ratio and 100% acetonitrile (B). […] The MS configuration was as follows: ESI, negative ion mode, nebulizer pressure of 30 psi, a dry gas flow rate of 10 mL/min, dry gas temperature of 350 °C, and a scan rate of 100~1200 m/z. PCs were determined according to their retention times, UV/VIS spectra, and high-resolution MS spectra, in addition to a comparison with the standards. […] Putative annotations were made using spectral features and literature information on the chromatographic properties and mass spectra records from the metabolome database. A standard curve was drawn using methanol solutions with different concentrations as the standards. The limits of detection and quantitation were calculated according to the signal-to-noise ratio (limit of detection: signal-to-noise ratio ≥ 3; limit of quantitation: signal-to-noise ratio ≥ 10). […] PCs All of the samples were determined in triplicate.

[2] = Cabernet red wine, digested sample, basolateral side of Caco-2 monolayer
[3] = Helanshan red wine, digested sample, basolateral side of Caco-2 monolayer
[4] = Tianzhu red wine, digested sample, basolateral side of Caco-2 monolayer
[5] = apical to basolateral, digested Cabernet red wine
[6] = apical to basolateral, digested Helanshan red wine
[7] = apical to basolateral, digested Tianzhu red wine
[8] = Cabernet red wine, after simulated gastrointestinal digestion
[9] = Helanshan red wine, after simulated gastrointestinal digestion
[10] = Tianzhu red wine, after simulated gastrointestinal digestion

| SMILES | Apparent Permeability Coefficients, Cabernet (Caco-2 cell monolayer; Caco-2) | Apparent Permeability Coefficients, Helanshan (Caco-2 cell monolayer; Caco-2) | Apparent Permeability Coefficients, Tianzhu (Caco-2 cell monolayer; Caco-2) | PC Contents, Cabernet, After Digestion [1] | PC Contents, Helanshan, After Digestion [1] | PC Contents, Tianzhu, After Digestion [1] | PC Contents, Cabernet, Transmembrane (Caco-2 cell monolayer; Caco-2) | PC Contents, Helanshan, Transmembrane (Caco-2 cell monolayer; Caco-2) | PC Contents, Tianzhu, Transmembrane (Caco-2 cell monolayer; Caco-2) | PC Contents, Cabernet, Transmembrane (Caco-2 cell monolayer; [2]) | PC Contents, Helanshan, Transmembrane (Caco-2 cell monolayer; [3]) | PC Contents, Tianzhu, Transmembrane (Caco-2 cell monolayer; [4]) | Apparent Permeability Coefficients, Cabernet (Caco-2 cell monolayer; [5]) | Apparent Permeability Coefficients, Helanshan (Caco-2 cell monolayer; [6]) | Apparent Permeability Coefficients, Tianzhu (Caco-2 cell monolayer; [7]) | PC Contents, Cabernet, After Digestion [1, 8] | PC Contents, Helanshan, After Digestion [1, 9] | PC Contents, Tianzhu, After Digestion [1, 10] | Increase in content after digestion ([1]; Helanshan red wine) [%] | Increase in content after digestion ([1]; Tianzhu red wine) [%] |
| --- | --- | --- | --- | --- | --- | --- | --- | --- | --- | --- | --- | --- | --- | --- | --- | --- | --- | --- | --- | --- |
| O.Oc1cc(O)c2c(c1)O[C@H](c1ccc(O)c(O)c1)[C@@H](O)C2 [Catechin] | 7.77 ± 1.14 ^a ×10^−6 cm/s | 7.69 ± 1.23 ^a ×10^−6 cm/s | 7.83 ± 1.17 ^a ×10^−6 cm/s | 25.4 ± 0.86 ^b mg/L | 15.42 ± 0.83 ^b mg/L | 16.7 ± 0.75 ^b mg/L | – | – | – | – | – | – | – | – | – | – | – | – | – | – |
| O=C(/C=C/c1ccc(O)cc1)O[C@@H](C(=O)O)[C@@H](O)C(=O)O [Coutaric acid] | 12.13 ± 1.19 ^a ×10^−6 cm/s | 12.91 ± 1.32 ^a ×10^−6 cm/s | 12.46 ± 1.42 ^a ×10^−6 cm/s | 1.96 ± 0.08 ^b mg/L | 2.97 ± 0.15 ^b mg/L | – | 0.38 ± 0.02 ^a mg/L | 0.61 ± 0.03 ^a mg/L | 0.64 ± 0.03 ^a mg/L | – | – | – | – | – | – | – | – | – | – | – |
| CC(=O)OCC1OC(Oc2cc3c(O)cc(O)cc3[o+]c2-c2cc(O)c(O)c(O)c2)C(O)C(O)C1O (stereo not drawn) [Delphinidin-3-acglc] | – | – | – | – | – | – | – | – | – | 0.04 ± 0.002 ^a mg/L | 0.02 ± 0.001 ^a mg/L | 0.04 ± 0.002 ^a mg/L | 8.57 ± 1.26 ^a ×10^−6 cm/s | 8.64 ± 1.38 ^a ×10^−6 cm/s | 8.78 ± 1.44 ^a ×10^−6 cm/s | 0.29 ± 0.014 ^b mg/L | 0.14 ± 0.007 ^b mg/L | 0.22 ± 0.008 ^b mg/L | – | – |
| OC[C@H]1O[C@@H](Oc2cc3c(O)cc(O)cc3[o+]c2-c2cc(O)c(O)c(O)c2)[C@H](O)[C@@H](O)[C@@H]1O [Delphinidin-3-glc, delphinidin-3-glucoside] | – | – | – | – | – | – | – | – | – | 0.59 ± 0.02 ^a mg/L | 0.53 ± 0.02 ^a mg/L | 0.57 ± 0.02 ^a mg/L | 12.38 ± 2.37 ^a ×10^−6 cm/s | 12.59 ± 2.64 ^a ×10^−6 cm/s | 12.45 ± 2.11 ^a ×10^−6 cm/s | 2.96 ± 0.09 ^b mg/L | 2.63 ± 0.10 ^c mg/L | 2.87 ± 0.11 ^c mg/L | 28.3 | 20.6 |
| COc1cc(/C=C/C(=O)OC(C(=O)O)C(O)C(=O)O)ccc1O (stereo not drawn) [Fertaric acid] | 28.2 ± 4.11 ^a ×10^−6 cm/s | 27.9 ± 3.64 ^a ×10^−6 cm/s | 27.6 ± 3.89 ^a ×10^−6 cm/s | 3.11 ± 0.12 ^b mg/L | 1.81 ± 0.10 ^c mg/L | 4.11 ± 0.18 ^c mg/L | 1.40 ± 0.07 ^a mg/L | 0.81 ± 0.04 ^a mg/L | 0.82 ± 0.03 ^a mg/L | – | – | – | – | – | – | – | – | – | – | – |
| COc1cc(-c2oc3cc(O)cc(O)c3c(=O)c2O[C@@H]2O[C@H](CO)[C@@H](O)[C@H](O)[C@H]2O)ccc1O [Isorhamnetin-3-glc] | – | – | – | – | – | – | – | – | – | 0.74 ± 0.03 ^a mg/L | 0.69 ± 0.03 ^a mg/L | 1.97 ± 0.07 ^a mg/L | 4.29 ± 0.33 ^a ×10^−6 cm/s | 4.39 ± 0.31 ^a ×10^−6 cm/s | 4.35 ± 0.34 ^a ×10^−6 cm/s | 10.82 ± 0.32 ^b mg/L | 9.87 ± 0.47 ^b mg/L | 9.88 ± 0.35 ^b mg/L | – | – |
| COc1cc(-c2oc3cc(O)cc(O)c3c(=O)c2O[C@@H]2O[C@H](CO)[C@@H](O)[C@H](O)[C@H]2O)cc(O)c1O [Laricitrin-3-glc] | 1.76 ± 0.17 ^a ×10^−6 cm/s | 1.83 ± 0.16 ^a ×10^−6 cm/s | 1.79 ± 0.13 ^a ×10^−6 cm/s | 29.78 ± 1.28 ^b mg/L | 18.76 ± 0.81 ^b mg/L | 28.63 ± 0.86 ^b mg/L | 0.84 ± 0.04 ^a mg/L | 0.55 ± 0.03 ^a mg/L | 5.70 ± 0.29 ^a mg/L | – | – | – | – | – | – | – | – | – | – | – |
| COc1cc(-c2[o+]c3cc(O)cc(O)c3cc2O[C@@H]2O[C@H](COC(C)=O)[C@@H](O)[C@H](O)[C@H]2O)cc(OC)c1O [Malvidin-3-acglc] | – | – | – | – | – | – | – | – | – | 8.02 ± 0.38 ^a mg/L | 6.06 ± 0.25 ^a mg/L | 7.83 ± 0.23 ^a mg/L | 12.59 ± 2.16 ^a ×10^−6 cm/s | 12.42 ± 2.23 ^a ×10^−6 cm/s | 12.37 ± 2.45 ^a ×10^−6 cm/s | 39.8 ± 1.51 ^b mg/L | 30.5 ± 0.92 ^b mg/L | 39.3 ± 1.30 ^b mg/L | – | – |
| COc1cc(-c2[o+]c3cc(O)cc(O)c3cc2O[C@@H]2O[C@H](CO)[C@@H](O)[C@H](O)[C@H]2O)cc(OC)c1O [Malvidin-3-glc, malvidin-3-glucoside] | – | – | – | – | – | – | – | – | – | 62.38 ± 3.24 ^a mg/L | 35.55 ± 1.46 ^a mg/L | 20.68 ± 1.05 ^a mg/L | – | 25.19 ± 3.99 ^a ×10^−6 cm/s | 25.37 ± 4.11 ^a ×10^−6 cm/s | 153.43 ± 5.83 ^b mg/L | 88.2 ± 3.97 ^b mg/L | 103.8 ± 5.71 ^b mg/L | – | – |
